According to patent US20240252474A1, “METHODS AND COMPOSITIONS COMPRISING A CARDIO-TOLERATED HDAC INHIBITOR” (HUYABIO International, LLC, priority 2023, published 2024):
“And” between values parts separate entries of the source, which are not always exact repeats. Equal entries are not always repeated. Where two headings read alike, the source gives them in different places.

Experiments:
[1] = system: advanced solid tumors, including melanoma, RCC (renal cell carcinoma), and NSCLC (non-small cell lung cancer); assay: Tumor response by RECIST v.1.1; assay type: in vivo, human
From the text: The decision to escalate the dose was based on the conventional 3+3 design and observed incidences of dose-limiting toxicities (DLTs). Each treatment cycle was defined as 28 days. To be evaluable for DLT, a subject must have developed DLT, or received the minimum 75% of the planned HBI-8000 dose within the 28-day DLT evaluation period in the absence of treatment delays due to toxicities. Subjects experiencing DLT within the first two weeks after having received 100% of assigned dose of HBI-8000 are also evaluable for DLT. Unacceptable toxicities were defined as grade 3 or higher non-hematologic and hematologic toxicities with clinical complications. Unacceptable toxicities observed over the first 28 days following HBI-8000 administration were considered as DLTs. The RP2D was identified as the highest dose at which the DLT incidence was less than 33.3%. HBI-8000 administration continued until disease progression or unacceptable toxicity was observed. The efficacy of the combination was further evaluated in an expanded cohort of selected patient populations at RP2D based on an objective response rate according to Response Evaluation Criteria in Solid Tumors (RECIST) version 1.1 criteria, progression-free survival, and duration of responses.
Tumor assessments were performed every 8 weeks until treatment discontinuation, then every 12 (±1) weeks in subjects in whom disease progression has not yet been observed, and followed the guidelines specified by RECIST v.1.1 and immune-related Response Evaluation Criteria In Solid Tumors (iRECIST).

[2] = system: electrocardiogram (ECG) QT interval; assay: 12-lead Holter ECG (QTcF, heart rate) and concentration-QT modeling; assay type: in vivo; settings: for median ΔQTcF across time points: C1D1, up to 4 hours post dose
Procedure: In conjunction with the pharmacokinetic analysis, Holter monitors were used to record 12-lead continuous digital ECGs (under controlled conditions to minimize digital noise) on a baseline day (within 1-7 days prior to C1D1) and on C1D1 (Phase 1b only). Triplicate 10-second ECGs were extracted from the Holter flashcard at matched time-points on the baseline day and on C1D1 at pre-dose (0.5 hr prior to breakfast), and up to 4 hours post-dose. The PR, QRS, RR, and QT intervals were analyzed by a central ECG laboratory. Mealtimes (breakfast) were standardized across both days. The measured QT data were corrected for heart rate using the Fridericia correction (QTcF). • QTcF was calculated using the formula: Fridericia: QTcFri=QT/(RR)^1/3 (Fridericia L S. Die systolendauer im elektrokardiogramm bei normalenmenschen und bei herzkranken. Acta Med Scand. 1920; 53:469-486).
(§1) Non-compartmental PK analysis for HBI-8000 was conducted in Phase 1b using serial plasma concentration data collected up to 24 hours post-dose for the first (Cycle 1 Day 1; C1D1) dose and up to 7 hours post-dose for the ninth (C2D1) dose of HBI-8000. In conjunction with PK, Holter monitors were used to record 12-lead continuous digital ECGs (under controlled conditions to minimize digital noise) on a baseline day (within 1-7 days prior to C1D1) and on C1D1 (Phase 1b only). Triplicate 10-second ECGs were extracted from the Holter flashcard at matched time-points on the baseline day and on C1D1 up to 4 hours post-dose and the PR, QRS, RR, and QT intervals were analyzed by a Central ECG Laboratory. Meal-times (breakfast) were standardized across both days and occurred after or ≥1 hour before the scheduled extraction times for triplicate ECGs. The measured QT data were corrected for heart rate using Fridericia (QTcF).

[3] = Non-compartmental PK analysis of HBI-8000 plasma concentrations; assay type: in vivo, human; settings: for AUC0-7/D / AUC0-24/D / Cmax/D / CPre/D: dose-normalized; for AUC from 0 to 7 h post-dose: read-out: AUC0-7; for AUC(0-t): read-out: AUC0-24
From the text: Statistical analyses of safety, tolerability, and anti-tumor activity were primarily descriptive in nature. Toxicities were tabulated by type and grade. The safety population included all patients who received ≥1 dose of HBI-8000 and nivolumab. Continuous variables were summarized using descriptive statistics and categorical variables were summarized with number and percentage at each category. Pharmacokinetic parameters were derived using noncompartmental methods with Phoenix® WinNonlin® Version 6.4 (Certara, L. P., Princeton, NJ, USA).
as §1

[4] = HBI-8000 + nivolumab, 3 NSCLC patients
[5] = HBI-8000 + nivolumab, 5 melanoma patients
[6] = HBI-8000 + nivolumab, 7 RCC patients
[7] = 20 mg, n = 2, individual values
[8] = C1D1, 20 mg, n = 3, geometric mean
[9] = C1D1, 30 mg, n = 7, geometric mean
[10] = C1D1, 40 mg, n = 7, geometric mean
[11] = C2D1, 20 mg, n = 2, individual values
[12] = C2D1, 30 mg, n = 3, geometric mean
[13] = C2D1, 40 mg, n = 4, geometric mean
[14] = human, plasma, oral, 20 mg, C1D1, 20 mg, n = 3, geometric mean
[15] = human, plasma, oral, 30 mg, C1D1, 30 mg, n = 7, geometric mean

In the case of `Nc1cc(F)ccc1NC(=O)c1ccc(CNC(=O)/C=C/c2cccnc2)cc1` [HBI-8000, N-(2-amino-4-fluorophenyl)-4-[[[(2E)-1-oxo-3-(3-pyridinyl)-2-propen-1-yl]amino]methyl]benzamide], the “NSCLC, PR” value [1, 4] is reported as 1 patients, the “NSCLC, stable disease” value [1, 4] is reported as 2 patients and the “Melanoma, complete response (CR)” value [1, 5] is reported as 1 patients. The “Melanoma, partial responses (PR)” value [1, 5] was 4 patients, the “Melanoma patients who responded” value ([1]; HBI-8000 + nivolumab, 5 melanoma patients, RECIST v.1.1) was 5 patients and the “RCC, PR” value [1, 6] was 2 patients. The “RCC, progressive disease” value [1, 6] was 4 patients, the “RCC, stable disease” value [1, 6] was 1 patients and the “earliest objective response, time of treatment” value ([1]; HBI-8000 + nivolumab, first scheduled tumor assessment, end of Cycle 2) was 8 weeks. The “longest time to response after treatment initiation” value ([1]; one patient, nivolumab and HBI-8000 ceased after 16 months) was 32 months, the “median ΔQTcF across time points” value ([2]; 30 mg dose) was 0 to −1.5 ms and the “highest median decrease in QTcF” value ([2]; 40 mg dose, 4 hours post dose) was -11.5 ms. The “median ΔQTcF across time points” value ([2]; 40 mg dose) was −3.0 to −11.5 ms, the “mean upper 90% confidence limits of model-predicted ΔQTcF” value ([2]; 20, 30 and 40 mg doses, threshold 10 ms) was −1.1 to −2.8 ms and the QTcF values ([2]; all patients, 20-40 mg) was at most 450 ms. For the same compound, the ΔQTcF values ([2]; all patients, 20-40 mg) was at most 30 ms, the “Effect on QTcF (conclusion)” value ([2]; at the doses and regimen administered) was “did not prolong QTcF” and the “change from baseline ventricular heart rate” value ([2]; single dose 20, 30 or 40 mg on C1D1, 0 to 4 hour) was “remained essentially stable”. The “median plasma concentration at 4 hours, lower than Cmax by” value ([3]; 20 mg dose) was 17%, the “AUC0-7 Ratio (C2D1/C1D1)” value [3, 7] was 0.69 and 1.99 and the “Cmax Ratio (C2D1/C1D1)” value [3, 7] was 1.06 and 1.80. For the same compound, the “median plasma concentration at 4 hours, lower than Cmax by” value ([3]; 30 mg dose) was 19%, the “AUC0-7 Ratio (C2D1/C1D1)” value ([3]; 30 mg, n = 3, geometric mean) was 1.37 and the “Cmax Ratio (C2D1/C1D1)” value ([3]; 30 mg, n = 3, geometric mean) was 1.08. For the same compound, the “AUC0-7 Ratio (C2D1/C1D1)” value ([3]; 40 mg, n = 3, geometric mean) was 1.36, the “Cmax Ratio (C2D1/C1D1)” value ([3]; 40 mg, n = 4, geometric mean) was 1.18 and the “median plasma concentration at 4 hours, lower than Cmax by” value ([3]; 40-mg dose) was 15%. The “Accumulation, first versus ninth dose” value ([3]; BIW dosing, C1D1 vs C2D1) was “No significant accumulation”, the Cmax ([3]; C1D1, 20 mg oral, n = 3, geometric mean) was 104.9 ng/mL and the AUC0-7/D [3, 8] was 19.2 ng·h/mL/mg. It also gave an AUC0-24/D [3, 8] of 79.5 ng·h/mL/mg, a Cmax/D [3, 8] of 5.24 ng/mL/mg and a Cmax ([3]; C1D1, 30 mg oral, n = 7, geometric mean) of 117.6 ng/mL. The AUC0-7/D [3, 9] was 11.4 ng·h/mL/mg, the AUC0-24/D [3, 9] was 57.8 ng·h/mL/mg and the Cmax/D [3, 9] was 3.92 ng/mL/mg. It also gave a Cmax ([3]; C1D1, 40 mg oral, n = 7, geometric mean) of 259.3 ng/mL, an AUC0-7/D ([3]; C1D1, 40 mg, n = 6, geometric mean) of 24.3 ng·h/mL/mg and an AUC0-24/D [3, 10] of 92.2 ng·h/mL/mg. For the same compound, the Cmax/D [3, 10] was 6.49 ng/mL/mg, the Cmax ([3]; C2D1, 20 mg BIW, n = 2, individual values) was 83.1 ng/mL and 182 ng/mL and the AUC0-7 [3, 11] was 250 ng·h/mL and 728 ng·h/mL. For the same compound, the “CPre (pre-dose trough concentration)” value [3, 11] was 4.76 ng/mL and 4.79 ng/mL, the Tmax [3, 11] was 3.0 h and the AUC0-7/D [3, 11] was 12.5 ng·h/mL/mg and 36.4 ng·h/mL/mg. The CPre/D [3, 11] was 0.238 ng/mL/mg and 0.240 ng/mL/mg, the Cmax/D [3, 11] was 4.16 ng/mL/mg and 9.10 ng/mL/mg and the “CPre (pre-dose trough concentration)” value [3, 12] was 16.1 ng/mL. For the same compound, the AUC0-7/D [3, 12] was 13.1 ng·h/mL/mg, the CPre/D [3, 12] was 0.536 ng/mL/mg and the Cmax/D [3, 12] was 3.76 ng/mL/mg. For the same compound, the “CPre (pre-dose trough concentration)” value [3, 13] was 14.2 ng/mL, the AUC0-7/D [3, 13] was 23.2 ng·h/mL/mg and the CPre/D [3, 13] was 0.356 ng/mL/mg. For the same compound, the Cmax/D [3, 13] was 5.73 ng/mL/mg, the AUC from 0 to 7 h post-dose [3, 14] was 384 ng·h/mL and the AUC(0-t) [3, 14] was 1590 ng·h/mL. For the same compound, the Tmax ([3]; human, plasma, oral, 20 mg, C1D1, 20 mg, n = 3, median, read-out: tmax) was 6.6 h, the AUC from 0 to 7 h post-dose [3, 15] was 342 ng·h/mL and the AUC(0-t) [3, 15] was 1730 ng·h/mL. The Tmax ([3]; human, plasma, oral, 30 mg, C1D1, 30 mg, n = 7, median, read-out: tmax) was 6.5 h, the Cmax ([3]; human, plasma, oral, 30 mg, C2D1, 30 mg BIW, n = 3, geometric mean, read-out: Cmax) was 113 ng/mL and the AUC from 0 to 7 h post-dose ([3]; human, plasma, oral, 30 mg, C2D1, 30 mg, n = 3, geometric mean) was 392 ng·h/mL. For the same compound, the Tmax ([3]; human, plasma, oral, 30 mg, C2D1, 30 mg, n = 3, median, read-out: tmax) was 6.7 h, the AUC from 0 to 7 h post-dose ([3]; human, plasma, oral, 40 mg, C1D1, 40 mg, n = 6, geometric mean) was 973 ng·h/mL and the AUC(0-t) ([3]; human, plasma, oral, 40 mg, C1D1, 40 mg, n = 7, geometric mean) was 3690 ng·h/mL. It also gave a Tmax ([3]; human, plasma, oral, 40 mg, C1D1, 40 mg, n = 7, median, read-out: tmax) of 4.8 h, a Cmax ([3]; human, plasma, oral, 40 mg, C2D1, 40 mg BIW, n = 4, geometric mean, read-out: Cmax) of 229 ng/mL and an AUC from 0 to 7 h post-dose ([3]; human, plasma, oral, 40 mg, C2D1, 40 mg, n = 4, geometric mean) of 929 ng·h/mL. It also gave a Tmax ([3]; human, plasma, oral, 40 mg, C2D1, 40 mg, n = 4, median, read-out: tmax) of 6.8 h, a Tmax ([3]; human, plasma, oral, 40 mg, range across 20, 30 and 40 mg BIW dose cohorts, post dose, read-out: median time to peak plasma concentration (tmax)) of 5 to 7 h and a Cmax ([3]; human, plasma, po, 20 mg, C1D1, 20 mg oral, n = 3, geometric mean, read-out: Cmax) of 105 ng/mL. It also gave a Cmax ([3]; human, plasma, po, 30 mg, C1D1, 30 mg oral, n = 7, geometric mean, read-out: Cmax) of 118 ng/mL and a Cmax ([3]; human, plasma, po, 40 mg, C1D1, 40 mg oral, n = 7, geometric mean, read-out: Cmax) of 259 ng/mL.
